The record followed here is patent US20260015340A1, “COMPOUND INCLUDING 2,4-DIAMINOPYRIDINE, PREPARATION METHOD THEREFOR, AND PHARMACEUTICAL COMPOSITION CONTAINING SAME AS ACTIVE INGREDIENT FOR PREVENTION OR TREATMENT OF CANCER” (KOREA RESEARCH INSTITUTE OF CHEMICAL TECHNOLOGY, priority 2022, published 2026).

Where two headings read alike, the source gives them in different places.

One assay addresses HPK1 (h) (Homo sapiens (Human), UniProt Q92918). The assay can be described thus: Inhibition against kinase activity of HPK1 (33P-ATP filter assay). It is filed as biochemical. Here is the method: Inhibition against kinase activity of HPK1 was measured as follows. Recombinant human HPK1 protein was mixed with the compounds in a reaction solution (8 mM MOPS, pH 7.0, 0.2 mM EDTA, 0.33 mg/mL myelin basic protein, 10 mM magnesium acetate, and 15 μM [gamma-33P-ATP]). The mixture was incubated at room temperature for 40 minutes. The reaction was terminated by adding phosphoric acid at a final concentration of 0.5%. A 10 μL aliquot of the reaction solution was spotted onto a P30 filter, washed four times in 0.425% phosphoric acid solution for 4 minutes each, and washed once with methanol. The filters were dried, and HPK1 activity was measured via scintillation counting. The HPK1 activity observed in the control group free of the compounds was set as 100%, and the inhibition by the compounds was expressed relative to this control value. To calculate the IC50 value, the compounds were diluted in 9 concentrations, starting from a maximum of 1 μM in a threefold serial dilution. The IC50 was defined as the concentration at which 50% inhibition was observed.

In another assay the target is MLK3 (h) (Homo sapiens, UniProt Q16584). The assay can be described thus: Inhibition against kinase activity of MLK3 (33P-ATP filter assay). Format: biochemical. How it is done: The kinase inhibition activity against MLK3 was measured as follows. Recombinant human […] protein was mixed with the compounds in a reaction solution (8 mM MOPS, pH 7.0, 0.2 mM EDTA, 0.33 mg/mL myelin basic protein, 5 mM DTT, 10 mM magnesium acetate, and 45 μM [gamma-33P-ATP]). The mixture was incubated at room temperature for 40 minutes. The reaction was terminated by adding phosphoric acid at a final concentration of 0.5%. A 10 μL aliquot of the reaction solution was then spotted onto a P30 filter, which was washed four times in 0.425% phosphoric acid solution for 4 minutes each and then washed once in methanol. The filters were dried, and MLK3 activity was measured via scintillation counting. The MLK3 activity observed in the control group free of the compounds was set as 100%, and the inhibition by the compounds was expressed relative to this control value. To calculate the IC50 value, the compounds were diluted in 9 concentrations, starting from a maximum of 1 μM in a threefold serial dilution. The IC50 was defined as the concentration at which 50% inhibition was observed.

Another assay deals with A549. The assay can be described thus: Anticancer activity in other cancer cell lines. It is filed as cell-based. Particulars: Homo sapiens. How it is done: (§1) The anticancer activity of the MLK3 and HPK1 kinase inhibitor compounds was evaluated using the human ovarian cancer cell line A2780 and the cisplatin-resistant cell line A2780/cis. A2780 and A2780/cis cells were cultured at a density of 4000 cells per well in 96-well plates and stabilized for one day. The compounds 1 to 3 synthesized in Example 1 were serially diluted starting from a concentration of 10 μM and applied to the cells. The treated cells were incubated for three days, and cell viability was measured using CCK8 reagent, with the concentration at which 50% of the cancer cells died expressed as the GI50.
(§2) Additionally, the anticancer activity of the compounds was also observed in other cancer cell lines (blood cancer, breast cancer, ovarian cancer, lung cancer, and brain cancer), as well as in drug-resistant cancer cell lines (doxorubicin-resistant blood cancer K562/ADM; and paclitaxel-resistant breast cancer MDA-MB-231/PTX).

A further assay relates to K562. Briefly: Anticancer activity in other cancer cell lines. Format: cell-based. Particulars: Homo sapiens. How it is done:
as §1, §2

Another assay deals with MDA-MB-231. Briefly: Anticancer activity in other cancer cell lines. It is filed as cell-based. Particulars: Homo sapiens. How it is done:
as §1, §2

For another assay, the system named is MDA-MB-453. The assay can be described thus: Anticancer activity in other cancer cell lines. Particulars: Homo sapiens. Format: cell-based. How it is done:
as §1, §2

Another assay deals with SH-SY5Y. Briefly: Anticancer activity in other cancer cell lines. Particulars: Homo sapiens. Format: cell-based. How it is done: as §1, §2
A further assay relates to SKOV3. Briefly: Anticancer activity in other cancer cell lines. Format: cell-based. Particulars: Homo sapiens, SK-OV-3. How it is done: as §1, §2
The next assay relates to U937. Briefly: Anticancer activity in other cancer cell lines. It is filed as cell-based. Particulars: Homo sapiens, U-937. Here is the method: as §1, §2
The test system of assay [1] is doxorubicin-resistant blood cancer K562/ADM. Briefly: Anticancer activity in other cancer cell lines. Format: cell-based. Particulars: Homo sapiens. How it is done: as §1, §2
In assay [2] the test system is paclitaxel-resistant breast cancer MDA-MB-231/PTX. The assay can be described thus: Anticancer activity in other cancer cell lines. Format: cell-based. Particulars: Homo sapiens. How it is done: as §1, §2
The subject of assay [3] is cisplatin-resistant cell line A2780/cis. Briefly: Anticancer activity, CCK8 cell viability. It is filed as cell-based. Particulars: Homo sapiens, A2780cis, 72 h, A2780/cis cells, three days, FIG. 1. Here is the method: as §1
Assay [4] relates to human ovarian cancer cell line A2780. Briefly: Anticancer activity, CCK8 cell viability. Format: cell-based. Particulars: 72 h, A2780 cells, three days, FIG. 1. Here is the method: as §1
A further assay relates to Human PBMC. The assay can be described thus: IL-2 measurement for T cell activation enhancement. It is filed as cell-based. Particulars: CD3/CD28 Dynabeads, 6 days, FIG. 2. Here is the method: Human PBMC was seeded at a density of 2×10^5 cells per well in a 96-well plate. The cells were pretreated for one hour with serial dilutions of the compounds 1 to 3 synthesized in Example 1 starting from 3 μM. Afterward, CD3/CD28 Dynabeads were added to the cells at a 1:1 ratio and incubated for 6 days. After incubation, the cells and media were analyzed using the Sartorius human T cell activation cell and cytokine profiling kit with the iQue system. IL-2, a biomarker used to assess T cell activation, was measured. The results were calculated by setting the positive control group (treated with Dynabeads alone) as 100%.

Setting [5] is: HPK1 (h), 15 μM ATP, read-out: IC50.
The mark [6] stands for this setting: approximate value, read-out: IC50 value for HPK1 inhibition.
The mark [7] stands for this setting: MLK3 (h), 45 μM ATP, read-out: IC50.
Where [8] appears, read: approximate value, read-out: IC50 value for MLK3 inhibition.

What is called IC50 is the midpoint of a concentration-inhibition curve. Usually GI50 stands for the concentration giving 50% growth inhibition.

Sequence of HPK1 (h) (Q92918 whole entry): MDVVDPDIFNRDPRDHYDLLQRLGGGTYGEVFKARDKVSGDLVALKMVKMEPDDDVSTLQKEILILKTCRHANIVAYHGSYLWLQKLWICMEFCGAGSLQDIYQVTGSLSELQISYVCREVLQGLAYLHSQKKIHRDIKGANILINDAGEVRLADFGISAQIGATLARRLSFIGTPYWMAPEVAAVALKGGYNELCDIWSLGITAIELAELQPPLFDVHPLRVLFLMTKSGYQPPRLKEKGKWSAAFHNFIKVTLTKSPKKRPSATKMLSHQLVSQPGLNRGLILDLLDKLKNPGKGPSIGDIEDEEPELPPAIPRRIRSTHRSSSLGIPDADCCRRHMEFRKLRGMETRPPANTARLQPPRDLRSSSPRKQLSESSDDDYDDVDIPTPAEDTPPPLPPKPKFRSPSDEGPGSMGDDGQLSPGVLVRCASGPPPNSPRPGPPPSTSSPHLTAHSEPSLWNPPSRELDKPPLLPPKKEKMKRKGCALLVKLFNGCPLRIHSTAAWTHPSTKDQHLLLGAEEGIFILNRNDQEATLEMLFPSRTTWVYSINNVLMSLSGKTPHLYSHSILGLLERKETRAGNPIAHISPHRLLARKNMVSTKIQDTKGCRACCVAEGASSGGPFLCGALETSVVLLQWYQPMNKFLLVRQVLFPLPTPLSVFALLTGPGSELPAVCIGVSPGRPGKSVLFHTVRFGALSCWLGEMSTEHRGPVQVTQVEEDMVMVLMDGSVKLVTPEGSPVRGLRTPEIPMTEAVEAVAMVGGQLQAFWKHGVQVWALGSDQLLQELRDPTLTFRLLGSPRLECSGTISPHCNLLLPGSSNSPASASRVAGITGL
Sequence of MLK3 (h) (Q16584 whole entry, looked up): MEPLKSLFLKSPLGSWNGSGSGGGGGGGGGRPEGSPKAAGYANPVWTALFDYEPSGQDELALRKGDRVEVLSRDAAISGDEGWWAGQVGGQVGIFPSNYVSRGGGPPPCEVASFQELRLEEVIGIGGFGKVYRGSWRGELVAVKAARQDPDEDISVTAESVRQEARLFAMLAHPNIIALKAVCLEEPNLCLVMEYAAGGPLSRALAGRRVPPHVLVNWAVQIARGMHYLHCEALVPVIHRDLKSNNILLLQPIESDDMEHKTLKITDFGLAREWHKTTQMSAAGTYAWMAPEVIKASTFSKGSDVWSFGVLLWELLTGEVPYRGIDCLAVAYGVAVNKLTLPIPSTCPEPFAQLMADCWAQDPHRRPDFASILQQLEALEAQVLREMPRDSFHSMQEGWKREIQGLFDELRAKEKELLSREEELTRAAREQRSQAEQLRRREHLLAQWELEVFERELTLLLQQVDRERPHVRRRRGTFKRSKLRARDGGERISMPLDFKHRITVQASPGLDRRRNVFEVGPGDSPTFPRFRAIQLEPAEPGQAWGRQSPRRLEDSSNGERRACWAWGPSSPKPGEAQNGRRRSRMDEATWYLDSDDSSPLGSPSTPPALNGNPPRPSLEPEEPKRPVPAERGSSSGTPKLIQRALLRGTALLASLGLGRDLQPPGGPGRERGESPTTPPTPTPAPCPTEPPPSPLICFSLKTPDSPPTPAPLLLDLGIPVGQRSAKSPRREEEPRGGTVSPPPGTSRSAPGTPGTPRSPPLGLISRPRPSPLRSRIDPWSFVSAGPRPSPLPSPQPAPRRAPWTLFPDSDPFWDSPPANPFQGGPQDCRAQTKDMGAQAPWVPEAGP

With `CC1(C)OC(=O)c2ccc(Nc3ncc(Cl)c(Nc4ccc5c(c4)C(C)(C)OC5=O)n3)cc21` [Compound 3, 5,5′-((5-Chloropyrimidine-2,4-diyl)bis(azanediyl))bis(3,3-dimethylisobenzofuran-1(3H)-one)], the values for the half-maximal inhibitory concentration (IC50) on HPK1 (h) (setting [5]), at HPK1 (h) (setting [6]) and on MLK3 (h) (setting [7]) were 500 to 1000 nM, roughly 900 nM and greater than 1000 nM, respectively. The GI50 was greater than 10000 nM in the assay on A549; greater than 10000 nM in the assay on K562; 1350 nM in the assay with MDA-MB-231; 1070 nM in the assay with MDA-MB-453; 550 nM with SH-SY5Y; greater than 10000 nM with SKOV3. The concentration for 50% growth inhibition (GI50) in the assay on U937 was greater than 10000 nM; in [1], greater than 10000 nM; in assay [2], 1110 nM.

As to `CC1(C)OC(=O)c2ccc(Nc3nc(Nc4ccc5c(c4)CCNC5)ncc3Cl)cc21` [Compound 1, 5-((5-chloro-2-((1,2,3,4-tetrahydroisoquinolin-6-yl)amino)pyrimidin-4-yl)amino)-3,3-dimethylisobenzofuran-1(3H)-one], the half-inhibitory concentration (IC50) at HPK1 (h) (setting [5]) is 1 to 100 nM; at HPK1 (h) (setting [6]), roughly 30 nM; at MLK3 (h) (setting [7]), 100 to 500 nM; on MLK3 (h) (setting [8]), roughly 140 nM. The concentration for 50% growth inhibition (GI50) was roughly 400 nM in assay [3]; roughly 200 nM in assay [4]; 1610 nM in the assay with A549; 430 nM in the assay with K562; 1250 nM with MDA-MB-231; 1020 nM in the assay on MDA-MB-453. Further, the GI50 came out at 390 nM with SH-SY5Y; 1700 nM in the assay with SKOV3; 290 nM with U937; 3740 nM in assay [1]; 990 nM in assay [2]. Besides, the “IL-2 levels (T cell activation)” value in the assay on Human PBMC was “increased IL-2 levels”.

With `CC1(C)OC(=O)c2cc(Nc3nc(Nc4ccc5c(c4)CCNC5)ncc3Cl)ccc21` [Compound 2, 6-((5-chloro-2-((1,2,3,4-tetrahydroisoquinolin-6-yl)amino)pyrimidin-4-yl)amino)-3,3-dimethylisobenzofuran-1(3H)-one], the IC50 was 1 to 100 nM at HPK1 (h) (setting [5]), roughly 50 nM on HPK1 (h) (setting [6]), 100 to 500 nM on MLK3 (h) (setting [7]) and roughly 200 nM at MLK3 (h) (setting [8]). Also, the GI50 in assay [3] was roughly 310 nM; in assay [4] it was roughly 210 nM; with A549, 1150 nM; with K562, 1070 nM; in the assay with MDA-MB-231, 1030 nM; with MDA-MB-453 it was 2900 nM. The GI50 worked out at 280 nM in the assay with SH-SY5Y; 1500 nM in the assay on SKOV3; 440 nM in the assay on U937; 2280 nM in assay [1]; 770 nM in assay [2]. Besides, the “IL-2 levels (T cell activation)” value with Human PBMC is “increased IL-2 levels”.
